In PMC9541843, “N‐terminal alterations turn the gut hormone GLP‐2 into an antagonist with gradual loss of GLP‐2 receptor selectivity towards more GLP‐1 receptor interaction” (British Journal of Pharmacology, 2022):
Read-outs that look alike come from different tables or passages of the source. Peptide text beside a SMILES is read from it. * marks the point of attachment. C16 diacid = O=C(O)CCCCCCCCCCCCCCC(=O)*

Columns and labels:
[1] = molecular target: T1, human GLP‐2R (Homo sapiens, UniProt O95838); assay: cell-based; conditions: SEM
T1 sequence (O95838 1-553): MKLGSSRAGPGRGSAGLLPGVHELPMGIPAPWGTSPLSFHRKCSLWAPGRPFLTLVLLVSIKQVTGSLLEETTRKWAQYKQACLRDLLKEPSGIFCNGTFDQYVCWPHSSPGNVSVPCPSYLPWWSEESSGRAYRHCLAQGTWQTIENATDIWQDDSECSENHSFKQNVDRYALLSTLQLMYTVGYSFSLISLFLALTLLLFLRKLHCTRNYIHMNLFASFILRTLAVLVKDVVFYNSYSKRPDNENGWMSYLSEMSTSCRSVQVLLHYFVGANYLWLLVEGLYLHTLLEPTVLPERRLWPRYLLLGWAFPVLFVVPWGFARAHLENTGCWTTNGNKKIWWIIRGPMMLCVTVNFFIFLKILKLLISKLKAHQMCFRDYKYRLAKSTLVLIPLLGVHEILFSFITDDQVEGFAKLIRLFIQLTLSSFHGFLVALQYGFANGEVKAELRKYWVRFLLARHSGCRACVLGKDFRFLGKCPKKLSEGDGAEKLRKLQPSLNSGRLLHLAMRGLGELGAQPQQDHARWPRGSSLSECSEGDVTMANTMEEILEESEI

[2] = molecular target: T1, human GLP‐2R; assay: cAMP accumulation, agonism (HitHunter cAMP assay); conditions: for Emax: COS-7, read-out: cAMP activation Emax ± SEM
[3] = molecular target: T1, human GLP‐2R; assay: Schild plot analysis of cAMP activation curve of GLP‐2; type: cell-based; set-up: host or cells: COS-7 (transient, calcium phosphate); conditions: COS‐7 cells, n = 5 in duplicate, read-out: Ki from Schild plot (pA2) (converted)
Experimental: Statistical significance was accepted at P < 0.05.
We used a Schild plot approach, where we examined their ability to right‐shift the cAMP activation curve of native GLP‐2 (Figure 4a–d). For GLP‐2(2‐33), GLP‐(3‐33) and GLP‐2(4‐33), all having intrinsic activity, the Schild plot analysis was based on an equieffective DR (the concentrations at 60% of Emax). For GLP‐2(3‐33)[D3A], with no intrinsic activity, the Schild plot analysis was conducted based on the shift in the EC50 values for GLP‐2 with and without GLP‐2(3‐33)[D3A] as previously described (Sparre‐Ulrich et al., [2017]).

[4] = molecular target: T1, human GLP‐2R; assay: cAMP accumulation, inhibition of GLP‐2‐induced activation; conditions: for Inhibition of GLP‐2‐induced cAMP at the human GLP‐2R: at 1 μM peptide (highest tested concentration), COS‐7 cells
[5] = molecular target: human GLP‐1R (Homo sapiens, UniProt P43220); assay: cAMP accumulation, inhibition of GLP‐1‐mediated response (selectivity); conditions: for inhibition at 1 µM: COS-7, read-out: Inhibition of GLP‐1‐mediated cAMP response at the human GLP‐1R
Chain of human GLP‐1R (P43220 24-463): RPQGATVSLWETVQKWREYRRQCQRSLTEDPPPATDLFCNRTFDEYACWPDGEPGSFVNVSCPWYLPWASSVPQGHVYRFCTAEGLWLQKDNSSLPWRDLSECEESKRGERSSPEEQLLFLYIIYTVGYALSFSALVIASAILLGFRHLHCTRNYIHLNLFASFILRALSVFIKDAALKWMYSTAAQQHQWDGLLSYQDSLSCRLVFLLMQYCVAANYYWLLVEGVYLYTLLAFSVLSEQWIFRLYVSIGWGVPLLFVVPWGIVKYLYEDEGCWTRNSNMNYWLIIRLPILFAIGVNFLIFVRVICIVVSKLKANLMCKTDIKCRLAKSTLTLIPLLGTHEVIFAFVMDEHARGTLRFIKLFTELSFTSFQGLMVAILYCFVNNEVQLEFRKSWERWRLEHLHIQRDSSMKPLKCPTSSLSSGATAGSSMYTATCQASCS

| IC50 [1] [nM] | Emax ([2]; SEM) [%] | EC50 ([2]; SEM) [nM] | Ki [3] [nM] | IC50 [4] [nM] | inhibition at 1 µM [5] [%] | Inhibition of GLP‐2‐induced cAMP at the human GLP‐2R [4] [%] | IC50 [5] [nM] | EC50 [2] [nM] | IC50 ([4]; SEM) [nM] | Emax [2] [%] | SMILES |
| --- | --- | --- | --- | --- | --- | --- | --- | --- | --- | --- | --- |
| 7.94 | 20 ± 3.2 | 7.94 | 40 | 174 | 30 to 38 | – | – | – | – | – | CC[C@H](C)[C@H](NC(=O)[C@H](Cc1ccccc1)NC(=O)[C@H](CC(=O)O)NC(=O)[C@H](CCCNC(=N)N)NC(=O)[C@H](C)NC(=O)[C@H](C)NC(=O)[C@H](CC(C)C)NC(=O)[C@H](CC(N)=O)NC(=O)[C@H](CC(=O)O)NC(=O)[C@H](CC(C)C)NC(=O)[C@@H](NC(=O)[C@@H](NC(=O)[C@H](CC(N)=O)NC(=O)[C@H](CCSC)NC(=O)[C@H](CCC(=O)O)NC(=O)[C@H](CC(=O)O)NC(=O)[C@H](CO)NC(=O)[C@H](Cc1ccccc1)NC(=O)[C@H](CO)NC(=O)CNC(=O)[C@H](CC(=O)O)NC(=O)[C@H](C)N)[C@@H](C)O)[C@@H](C)CC)C(=O)N[C@@H](CC(N)=O)C(=O)N[C@@H](Cc1c[nH]c2ccccc12)C(=O)N[C@@H](CC(C)C)C(=O)N[C@H](C(=O)N[C@@H](CCC(N)=O)C(=O)N[C@H](C(=O)N[C@@H](CCCCN)C(=O)N[C@H](C(=O)N[C@H](C(=O)N[C@@H](CC(=O)O)C(=O)O)[C@@H](C)O)[C@@H](C)CC)[C@@H](C)O)[C@@H](C)CC [GLP‐2(2‐33)] (H-ADGSFSDEMNTILDNLAARDFINWLIQTKITD-OH) |
| – | – | – | – | 12.3 | 67 | 93 | 40 | – | – | – | CC[C@H](C)[C@H](NC(=O)[C@H](Cc1ccccc1)NC(=O)[C@H](CC(=O)O)NC(=O)[C@H](CCCNC(=N)N)NC(=O)[C@H](C)NC(=O)[C@H](C)NC(=O)[C@H](CC(C)C)NC(=O)[C@H](CC(N)=O)NC(=O)[C@H](CC(=O)O)NC(=O)[C@H](CC(C)C)NC(=O)[C@@H](NC(=O)[C@@H](NC(=O)[C@H](CC(N)=O)NC(=O)[C@H](CCSC)NC(=O)[C@H](CCC(=O)O)NC(=O)[C@H](CC(=O)O)NC(=O)[C@H](CO)NC(=O)[C@H](Cc1ccccc1)NC(=O)[C@H](CO)NC(=O)CCCCCCCCCCCCCCC(=O)O)[C@@H](C)O)[C@@H](C)CC)C(=O)N[C@@H](CC(N)=O)C(=O)N[C@@H](Cc1c[nH]c2ccccc12)C(=O)N[C@@H](CC(C)C)C(=O)N[C@H](C(=O)N[C@@H](CCC(N)=O)C(=O)N[C@H](C(=O)N[C@@H](CCCCN)C(=O)N[C@H](C(=O)N[C@H](C(=O)N[C@@H](CC(=O)O)C(=O)O)[C@@H](C)O)[C@@H](C)CC)[C@@H](C)O)[C@@H](C)CC [GLP‐2(5‐33)(C16‐diacid/5)] ({C16 diacid}-SFSDEMNTILDNLAARDFINWLIQTKITD-OH) |
| 6.31 | 17 ± 2.6 | – | 6.3 | – | – | – | – | 158 | 79.4 | – | CC[C@H](C)[C@H](NC(=O)[C@H](Cc1ccccc1)NC(=O)[C@H](CC(=O)O)NC(=O)[C@H](CCCNC(=N)N)NC(=O)[C@H](C)NC(=O)[C@H](C)NC(=O)[C@H](CC(C)C)NC(=O)[C@H](CC(N)=O)NC(=O)[C@H](CC(=O)O)NC(=O)[C@H](CC(C)C)NC(=O)[C@@H](NC(=O)[C@@H](NC(=O)[C@H](CC(N)=O)NC(=O)[C@H](CCSC)NC(=O)[C@H](CCC(=O)O)NC(=O)[C@H](CC(=O)O)NC(=O)[C@H](CO)NC(=O)[C@H](Cc1ccccc1)NC(=O)[C@H](CO)NC(=O)CN)[C@@H](C)O)[C@@H](C)CC)C(=O)N[C@@H](CC(N)=O)C(=O)N[C@@H](Cc1c[nH]c2ccccc12)C(=O)N[C@@H](CC(C)C)C(=O)N[C@H](C(=O)N[C@@H](CCC(N)=O)C(=O)N[C@H](C(=O)N[C@@H](CCCCN)C(=O)N[C@H](C(=O)N[C@H](C(=O)N[C@@H](CC(=O)O)C(=O)O)[C@@H](C)O)[C@@H](C)CC)[C@@H](C)O)[C@@H](C)CC [GLP‐2(4‐33)] (H-GSFSDEMNTILDNLAARDFINWLIQTKITD-OH) |
| – | – | – | 40 | 162 | – | – | – | – | – | – | CC[C@H](C)[C@H](NC(=O)[C@H](Cc1ccccc1)NC(=O)[C@H](CC(=O)O)NC(=O)[C@H](CCCNC(=N)N)NC(=O)[C@H](C)NC(=O)[C@H](C)NC(=O)[C@H](CC(C)C)NC(=O)[C@H](CC(N)=O)NC(=O)[C@H](CC(=O)O)NC(=O)[C@H](CC(C)C)NC(=O)[C@@H](NC(=O)[C@@H](NC(=O)[C@H](CC(N)=O)NC(=O)[C@H](CCSC)NC(=O)[C@H](CCC(=O)O)NC(=O)[C@H](CC(=O)O)NC(=O)[C@H](CO)NC(=O)[C@H](Cc1ccccc1)NC(=O)[C@H](CO)NC(=O)CNC(=O)[C@H](C)N)[C@@H](C)O)[C@@H](C)CC)C(=O)N[C@@H](CC(N)=O)C(=O)N[C@@H](Cc1c[nH]c2ccccc12)C(=O)N[C@@H](CC(C)C)C(=O)N[C@H](C(=O)N[C@@H](CCC(N)=O)C(=O)N[C@H](C(=O)N[C@@H](CCCCN)C(=O)N[C@H](C(=O)N[C@H](C(=O)N[C@@H](CC(=O)O)C(=O)O)[C@@H](C)O)[C@@H](C)CC)[C@@H](C)O)[C@@H](C)CC [GLP‐2(3‐33)[D3A]] (H-AGSFSDEMNTILDNLAARDFINWLIQTKITD-OH) |
| – | 21 ± 2.2 | – | – | – | 30 to 38 | – | – | – | – | – | CC[C@H](C)[C@H](NC(=O)[C@H](Cc1ccccc1)NC(=O)[C@H](CC(=O)O)NC(=O)[C@H](CCCNC(=N)N)NC(=O)[C@H](C)NC(=O)[C@H](C)NC(=O)[C@H](CC(C)C)NC(=O)[C@H](CC(N)=O)NC(=O)[C@H](CC(=O)O)NC(=O)[C@H](CC(C)C)NC(=O)[C@@H](NC(=O)[C@@H](NC(=O)[C@H](CC(N)=O)NC(=O)[C@H](CCSC)NC(=O)[C@H](CCC(=O)O)NC(=O)[C@H](CC(=O)O)NC(=O)[C@H](CO)NC(=O)[C@H](Cc1ccccc1)NC(=O)[C@H](CO)NC(=O)CNC(=O)[C@@H](N)CC(=O)O)[C@@H](C)O)[C@@H](C)CC)C(=O)N[C@@H](CC(N)=O)C(=O)N[C@@H](Cc1c[nH]c2ccccc12)C(=O)N[C@@H](CC(C)C)C(=O)N[C@H](C(=O)N[C@@H](CCC(N)=O)C(=O)N[C@H](C(=O)N[C@@H](CCCCN)C(=O)N[C@H](C(=O)N[C@H](C(=O)N[C@@H](CC(=O)O)C(=O)O)[C@@H](C)O)[C@@H](C)CC)[C@@H](C)O)[C@@H](C)CC [GLP‐2(3‐33)] (H-DGSFSDEMNTILDNLAARDFINWLIQTKITD-OH) |
| 7.94 | – | 25.1 | 126 | 204 | – | – | – | – | – | – | CC[C@H](C)[C@H](NC(=O)[C@H](Cc1ccccc1)NC(=O)[C@H](CC(=O)O)NC(=O)[C@H](CCCN=C(N)N)NC(=O)[C@H](C)NC(=O)[C@H](C)NC(=O)[C@H](CC(C)C)NC(=O)[C@H](CC(N)=O)NC(=O)[C@H](CC(=O)O)NC(=O)[C@H](CC(C)C)NC(=O)[C@@H](NC(=O)[C@@H](NC(=O)[C@H](CC(N)=O)NC(=O)[C@H](CCSC)NC(=O)[C@H](CCC(=O)O)NC(=O)[C@H](CC(=O)O)NC(=O)[C@H](CO)NC(=O)[C@H](Cc1ccccc1)NC(=O)[C@H](CO)NC(=O)CNC(=O)[C@@H](N)CC(=O)O)[C@@H](C)O)[C@@H](C)CC)C(=O)N[C@@H](CC(N)=O)C(=O)N[C@@H](Cc1c[nH]c2ccccc12)C(=O)N[C@@H](CC(C)C)C(=O)N[C@H](C(=O)N[C@@H](CCC(N)=O)C(=O)N[C@H](C(=O)N[C@@H](CCCCN)C(=O)N[C@H](C(=O)N[C@H](C(=O)N[C@@H](CC(=O)O)C(=O)O)[C@@H](C)O)[C@@H](C)CC)[C@@H](C)O)[C@@H](C)CC [GLP‐2(3‐33)] (H-DGSFSDEMNTILDNLAARDFINWLIQTKITD-OH) |
| – | – | – | – | 7.9 | 91 | 87 | 50 | – | – | 25 | CC[C@H](C)[C@H](NC(=O)[C@H](Cc1ccccc1)NC(=O)[C@H](CC(=O)O)NC(=O)[C@H](CCCNC(=N)N)NC(=O)[C@H](C)NC(=O)[C@H](C)NC(=O)[C@H](CC(C)C)NC(=O)[C@H](CC(N)=O)NC(=O)[C@H](CC(=O)O)NC(=O)[C@H](CC(C)C)NC(=O)[C@@H](NC(=O)[C@@H](NC(=O)[C@H](CC(N)=O)NC(=O)[C@H](CCSC)NC(=O)[C@H](CCC(=O)O)NC(=O)[C@H](CC(=O)O)NC(=O)[C@H](CO)NC(=O)[C@H](Cc1ccccc1)NC(=O)[C@H](CO)NC(=O)CNC(=O)[C@H](CC(=O)O)NC(=O)CCCCCCCCCCCCCCC(=O)O)[C@@H](C)O)[C@@H](C)CC)C(=O)N[C@@H](CC(N)=O)C(=O)N[C@@H](Cc1c[nH]c2ccccc12)C(=O)N[C@@H](CC(C)C)C(=O)N[C@H](C(=O)N[C@@H](CCC(N)=O)C(=O)N[C@H](C(=O)N[C@@H](CCCCN)C(=O)N[C@H](C(=O)N[C@H](C(=O)N[C@@H](CC(=O)O)C(=O)O)[C@@H](C)O)[C@@H](C)CC)[C@@H](C)O)[C@@H](C)CC [GLP‐2(3‐33)(C16‐diacid/3)] ({C16 diacid}-DGSFSDEMNTILDNLAARDFINWLIQTKITD-OH) |
